Results on six molecules are retold here after patent EP4603105A1, “PHARMACEUTICAL COMPOSITION CONTAINING CYCLIC COMPOUND HAVING SELECTIVE KRAS INHIBITORY EFFECT AGAINST HRAS AND NRAS” (CHUGAI SEIYAKU KABUSHIKI KAISHA, priority 2022, dated 2024).

pIC50, pKd: −log10 of the molar value. Read-outs that look alike come from different tables or passages of the source.

For experiment [1], the target named is GDP-bound NRAS wild-type protein (Homo sapiens, UniProt P01111). Put plainly: Binding to NRAS by surface plasmon resonance (SPR), KD and KD ratio to KRAS. In a few lines:
(§1)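 Affinity is measured by surface plasmon resonance at 30°C against captured, GDP-loaded RAS carrying a biotinylated Avi tag. Compounds are titrated by single-cycle kinetics, and KD comes from a 1:1 fit.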
For orientation: In SPR one partner is held on a chip, and binding of the other changes the refractive index at the surface.

In experiment [2] the target is GDP-bound KRAS wild-type protein (Homo sapiens, UniProt P01116). Put plainly: Binding to KRAS by surface plasmon resonance (SPR), dissociation constant KD. In a few lines:
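SPR, 30°C: Avi-biotin RAS·GDP captured via Biotin CAPture (~100–300 RU); running buffer HBS pH 7.4, 1 mM DTT, 10 mM MgCl2, 0.01% Tween 20, 10 µM GDP, 4% DMSO. Single-cycle kinetics, 100 µL/min, 75 s injections; 1:1 model → KD.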

The next experiment has as its target HRAS wild-type protein (Homo sapiens, UniProt P01112). Put plainly: Binding to HRAS by surface plasmon resonance (SPR), KD and KD ratio to KRAS. In a few lines: as §1
For experiment [3], the system named is human lung cancer strain NCI-H441. Put plainly: NCI-H441 cell proliferation inhibitory activity (CellTiter-Glo, 4 days). The following applies: read-out: NCl-H441 IC50. Format: cell-based. In a few lines: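 Readout: […] after the ATP-based reagent. Compound: serial dilutions in dimethyl sulfoxide.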
(In general: In ATP-based viability assays light output follows the ATP content of the culture.)

Setting [4] is: ratio of KD for GDP-bound NRAS wild-type protein to KD for KRAS.
The mark [5] stands for this setting: ratio of KD for HRAS wild-type protein to KD for KRAS.

Chain of GDP-bound KRAS wild-type protein (P01116 1-188 isoform P01116-2): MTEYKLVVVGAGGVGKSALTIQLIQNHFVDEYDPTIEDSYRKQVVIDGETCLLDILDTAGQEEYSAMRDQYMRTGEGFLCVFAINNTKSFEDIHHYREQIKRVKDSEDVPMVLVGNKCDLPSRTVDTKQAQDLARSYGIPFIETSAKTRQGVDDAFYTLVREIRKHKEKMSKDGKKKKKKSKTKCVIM
Chain of GDP-bound NRAS wild-type protein (P01111 whole entry): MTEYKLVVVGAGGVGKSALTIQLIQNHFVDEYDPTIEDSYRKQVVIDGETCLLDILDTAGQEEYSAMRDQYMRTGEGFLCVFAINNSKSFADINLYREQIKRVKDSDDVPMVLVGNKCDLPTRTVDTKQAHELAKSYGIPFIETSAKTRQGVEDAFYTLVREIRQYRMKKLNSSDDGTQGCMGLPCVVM
Chain of HRAS wild-type protein (P01112 whole entry): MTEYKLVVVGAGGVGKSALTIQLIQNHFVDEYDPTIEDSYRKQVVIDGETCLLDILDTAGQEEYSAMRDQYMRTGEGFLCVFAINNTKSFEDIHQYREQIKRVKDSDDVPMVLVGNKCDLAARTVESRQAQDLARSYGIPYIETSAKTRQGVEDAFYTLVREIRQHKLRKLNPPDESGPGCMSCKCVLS

The pKd is −log10 of the Kd, conventionally taken in molar units. Lower therefore signals a large Kd. What is called pIC50 is the negative decadic logarithm of the IC50, by convention in mol/L. For the molecule `C#CC[C@H]1C(=O)N[C@@H]([C@@H](C)CC)C(=O)N(C2CC2)CC(=O)N(C)[C@H]2C/C=C\CCN(C2=O)[C@@H](Cc2ccc(C)cc2)C(=O)N(C)CC(=O)N[C@@H](CCc2cc(F)c(C(F)(F)F)c(F)c2)C(=O)N2C[C@H](OCC)C[C@H]2C(=O)N(C)C2(CCC2)C(=O)N(C)[C@@H](C2CCCC2)C(=O)N(C)[C@H](C(=O)N(C)C)CC(=O)N1C` [PP3250], the “NRAS /KRAS” value in experiment [1] (setting [4]) is “A (a compound having 10 or more and less than 20 is denoted as A)”. For the same molecule, the pKd in experiment [2] (Single Cycle Kinetics) is 10.00. Also, the “HRAS /KRAS” value at HRAS wild-type protein (setting [5]) is “B (a compound having 3 or more and less than 10 is denoted as B)”. Further, the pIC50 in experiment [3] (NCI-H441 cells, 4 days) was 8.55.

Turning to `CCO[C@@H]1C[C@H]2C(=O)NC3(CCCC3)C(=O)N(C)[C@@H](C3CCC3)C(=O)N(C)[C@H](C(=O)N(C)C)CC(=O)N(C)[C@@H](CC(C)C)C(=O)N[C@@H]([C@@H](C)CC)C(=O)N(C)CC(=O)N(C)[C@H]3C/C(F)=C\CCN(C3=O)[C@@H](Cc3ccc(C)cc3)C(=O)N(C)CC(=O)N[C@@H](CCc3cc(F)c(C(F)(F)F)c(F)c3)C(=O)N2C1` [PP3517], in experiment [1] (setting [4]), the “NRAS /KRAS” value was “B (a compound having 3 or more and less than 10 is denoted as B)”. In addition, in experiment [2] (Single Cycle Kinetics), the pKd was 8.74. Moreover, the “HRAS /KRAS” value on HRAS wild-type protein (setting [5]) was “B (a compound having 3 or more and less than 10 is denoted as B)”. Besides, the pIC50 in experiment [3] (NCI-H441 cells, 4 days) was 7.25.

As to `CCO[C@@H]1C[C@H]2C(=O)NC3(CC(C)(C)C3)C(=O)N(C)[C@@H](C(CC)CC)C(=O)N(C)[C@H](C(=O)N(C)C)CC(=O)N(C)[C@@H](COC)C(=O)N[C@@H]([C@@H](C)CC)C(=O)N(C)CC(=O)N(C)[C@H]3C/C=C\CCN(C3=O)[C@@H](CC3CCC(F)(F)CC3)C(=O)N(C)CC(=O)N[C@@H](CCc3cc(F)c(C(F)(F)F)c(F)c3)C(=O)N2C1` [PP2440], the “NRAS /KRAS” value in experiment [1] (setting [4]) is “A (a compound having 10 or more and less than 20 is denoted as A)”. This molecule had a pKd in experiment [2] (1:1 binding model) of 9.36. On HRAS wild-type protein (setting [5]), the “HRAS /KRAS” value was “A (a compound having 10 or more and less than 20 is denoted as A)”. Further, in experiment [3] (NCI-H441 cells, 4 days), the pIC50 was 7.70.

With `CCC[C@H]1C(=O)N[C@@H](C2CCCC2)C(=O)N(C)CC(=O)N(C)[C@H]2C/C=C\CCN(C2=O)[C@@H](Cc2ccc(C)cc2)C(=O)N(C)CC(=O)N[C@@H](CCc2cc(F)c(C(F)(F)F)c(F)c2)C(=O)N2CC3(CC3)C[C@H]2C(=O)NC2(CCC2)C(=O)N(C)[C@@H](C(CC)CC)C(=O)N(C)[C@H](C(=O)N(C)C)CC(=O)N1C` [PP3428], in experiment [1] (setting [4]), the “NRAS /KRAS” value is “A (a compound having 10 or more and less than 20 is denoted as A)”. In experiment [2] (Single Cycle Kinetics), this molecule gave a pKd of 9.11. On HRAS wild-type protein (setting [5]), the “HRAS /KRAS” value is “A (a compound having 10 or more and less than 20 is denoted as A)”. Further, the pIC50 in experiment [3] (NCI-H441 cells, 4 days) is 7.73.

Take `CCO[C@@H]1C[C@H]2C(=O)NC3(CCC3)C(=O)N(C)[C@@H](C3CCCC3)C(=O)N(C)[C@H](C(=O)N(C)C)CC(=O)N(C)[C@@H](COCC(F)(F)F)C(=O)N[C@@H]([C@@H](C)CC)C(=O)N(C)CC(=O)N(C)[C@H]3C/C=C\CCN(C3=O)[C@@H](Cc3ccc(C(F)(F)F)cc3)C(=O)N(C)CC(=O)N[C@@H](CCc3cc(F)c(C(F)(F)F)c(F)c3)C(=O)N2C1` [PP1267]: the “NRAS /KRAS” value in experiment [1] (ratio of KD with respect to GDP-bound NRAS wild-type protein to KD with respect to KRAS) was “A (a compound having 10 or more and less than 20 is denoted as A)”. The same molecule gave a pKd in experiment [2] (Single Cycle Kinetics, 1:1 binding model) of 10.34. Further, at HRAS wild-type protein (ratio of KD with respect to HRAS wild-type protein to KD with respect to KRAS), the “HRAS /KRAS” value is “A (a compound having 10 or more and less than 20 is denoted as A)”. Also, in experiment [3] (50% proliferation inhibitory concentration, four days), the pIC50 is 7.97.

On to `CCC[C@H]1C(=O)N[C@@H]([C@@H](C)CC)C(=O)N(C2CC2)CC(=O)N(C)[C@H]2C/C=C\CCN(C2=O)[C@@H](Cc2ccc(C)cc2)C(=O)N(C)CC(=O)N[C@@H](CCc2cc(F)c(C(F)(F)F)c(F)c2)C(=O)N2CC[C@H](OC)[C@H]2C(=O)N(C)C2(CCC2)C(=O)N(C)[C@@H](C2CCCC2)C(=O)N(C)[C@H](C(=O)N(C)C)CC(=O)N1C` [PP3285], for which the “NRAS /KRAS” value in experiment [1] (setting [4]) is “A (a compound having 10 or more and less than 20 is denoted as A)”. The pKd in experiment [2] (Single Cycle Kinetics) is 9.82. For the same molecule, the “HRAS /KRAS” value at HRAS wild-type protein (setting [5]) is “A (a compound having 10 or more and less than 20 is denoted as A)”. The pIC50 in experiment [3] (NCI-H441 cells, 4 days) was 8.03.
